Measurements reported in patent US4448775A, “3-Carbamoyloxymethylcephem derivatives, and antibacterial drugs containing same” (Eisai Co., Ltd., priority 1981, dated 1984).
In brackets after ≈: the same amount, converted by molar mass.

Experiments:
[1] = test system: Escherichia coli NIHJ; assay: Minimal inhibitory concentration, standard agar dilution method of the Japan Society of Chemotherapy; format: cell-based
Procedure: (§1) Minimal inhibitory concentration (MIC, μg/ml) of certain compounds obtained in the above examples was determined in accordance with the standard agar dilution method of the Japan Society of Chemotherapy.

[2] = test system: Klebsiella pneumoniae EK-6; assay: as above; format: cell-based; conditions: EK6
Procedure: as §1

[3] = test system: Proteus morganii EP-14; assay: as above; format: cell-based; conditions: Morganella morganii, EP14
Procedure: as §1

[4] = test system: Proteus vulgaris E-18; assay: as above; format: cell-based; conditions: E18, Proteus vulgaris E-18, lactamase-producing bacterium
Procedure: as §1

[5] = test system: Pseudomonas aeruginosa EP-174; assay: as above; format: cell-based; conditions: EP174
Procedure: as §1

[6] = test system: Serratia marcescens ES-75; assay: as above; format: cell-based; conditions: ES75
Procedure: as §1

[7] = test system: Staphylococcus aureus 209-P; assay: as above; format: cell-based
Procedure: as §1

[8] = Acute toxicity, LD50 (mouse, oral administration); conditions: in vivo
From the text: With reference to the compounds of Example Nos. 2, 3 and 4, all their acute toxicity values [LD50 (mouse, oral administration)] amount to above 4 g/kg.

| Structure (SMILES) | MIC [1] | MIC [2] | MIC [3] | MIC [4] | MIC [5] | MIC [6] | MIC [7] | LD50 [8] |
| --- | --- | --- | --- | --- | --- | --- | --- | --- |
| NC(=O)OCC1=C(C(=O)O)N2C(=O)[C@@H](NC(=O)[C@H](NC(=O)c3coc4cc(O)c(O)cc4c3=O)c3ccc(O)cc3)[C@H]2SC1 [Example 2, 7β-[D-2-(6,7-Dihydroxychromon-3-carboxamido)-2-(4-hydroxyphenyl)acetamido]-3-carbamoyloxymethyl-3-cephem-4-carboxylic acid] | 0.8 µg/mL (≈ 1.28 µM) | ≤ 0.05 µg/mL | 25 µg/mL (≈ 39.9 µM) | > 100 µg/mL | 0.4 µg/mL (≈ 0.638 µM) | 0.8 µg/mL (≈ 1.28 µM) | 3.13 µg/mL (≈ 5 µM) | > 4000 mg/kg |
| CO[C@@]1(NC(=O)[C@H](NC(=O)c2coc3cc(O)c(O)cc3c2=O)c2ccc(O)cc2)C(=O)N2C(C(=O)O)=C(COC(=O)NC(=O)C(Cl)(Cl)Cl)CS[C@@H]21 [Example 3, 7β-[D-2-(6,7-Dihydroxychromon-3-carboxamido)-2-(4-hydroxyphenyl)acetamido]-7α-methoxy-3-trichloroacetylcarbamoyloxymethyl-3-cephem-4-carboxylic acid] | 3.13 µg/mL (≈ 3.9 µM) | ≤ 0.05 µg/mL | 12.5 µg/mL (≈ 15.6 µM) | 3.13 µg/mL (≈ 3.9 µM) | 3.13 µg/mL (≈ 3.9 µM) | 1.56 µg/mL (≈ 1.95 µM) | 6.25 µg/mL (≈ 7.79 µM) | > 4000 mg/kg |
| CO[C@@]1(NC(=O)[C@H](NC(=O)c2coc3cc(O)c(O)cc3c2=O)c2ccc(O)cc2)C(=O)N2C(C(=O)O)=C(COC(N)=O)CS[C@@H]21 [Example 4, 7β-[D-2-(6,7-Dihydroxychromon-3-carboxamido)-2-(4-hydroxyphenyl)acetamido]-7α-methoxy-3-carbamoyloxymethyl-3-cephem-4-carboxylic acid] | 1.56 µg/mL (≈ 2.38 µM) | ≤ 0.05 µg/mL | 6.25 µg/mL (≈ 9.52 µM) | 0.8 µg/mL (≈ 1.22 µM) | 1.56 µg/mL (≈ 2.38 µM) | 0.4 µg/mL (≈ 0.609 µM) | 6.25 µg/mL (≈ 9.52 µM) | > 4000 mg/kg |
